The text below walks through data of patent US20150105433A1, “TREATING VIRAL INFECTIONS HAVING VIRAL RNAs TRANSLATED BY A NON-IRES MEDIATED MECHANISM” (THE UAB RESEARCH FOUNDATION, priority 2012, published 2015).

One data set has as its system HCV (JFH1, genotype 2a). Put plainly: HCV amplification in RPS25 knockdown Huh7.13 cells, quantitative western analysis for NS5A. It is filed as cell-based, hepatitis C virus. The note with it: Huh7.13 cells infected with HCV at low MOI, 72 hours after infection, versus non-targeting control siRNA. The method, then: (§1) The day before transfection, 5×10^4 HeLa cells were seeded into 24-well plates. Once the cells reached 90% confluency, transfection of dual luciferase reporters was done using Lipofectamine 2000 (Invitrogen) according to the manufacturer's recommendations using 0.4 μg DNA per well. Cells were harvested for luciferase analysis after 24 hours. Double stranded RPS25 siRNAs, 5′-GGACUUAUCAAACUGGUUUtt-3′ (SEQ ID NO:3) and 5′-AAACCAGUUUGAUAAGUCCtt-3′ (SEQ ID NO:4) (Ambion, siRNA ID #142220), were used to knock down RPS25 in Huh7 cells. The Dicector™ DS (IDT; Coralville, Iowa) scrambled negative control duplex was used as a negative control. siRNA complexes were prepared in opti-MEM (Invitrogen) with 5 μl siPORT NeoFX transfection agent to a final siRNA concentration of 0.375 μM according to the manufacturer's specifications. siRNA complexes were plated and overlaid with 2×10^5 Huh7.13 cells in antibiotic-free media. The transfection media was replaced with complete media after 24 hours.
The HCV infection was carried out by inoculating Huh7.13 cells with 1 ml of culture medium from the HCV producer cell line Huh7 JFH1 HCV (genotype 2a). […]
Cells were lysed in E1 lysis buffer with 0.1% SDS. […] Signals were detected using flororchrome-conjugated secondary antibody for quantitative western blotting using the Odyssey scanner and software (LI-COR; Lincoln, Nebr.).

Another data set deals with RPS25 mRNA. Put plainly: RPS25 siRNA knockdown, northern analysis of RPS25 mRNA level. It is filed as cell-based, human. The note with it: Huh7.13 cells, transient siRNA transfection, 72 hours, RPS25 mRNA normalized to β-actin mRNA, relative to control. The method, then: as §1
Total RNA was harvested with TRIzol (Invitrogen) according to the manufacturer's protocol from shRNA lentiviral transduced cells. […]

For “siRNA that targets RPS25: Double stranded RPS25 siRNAs 5′-GGACUUAUCAAACUGGUUUtt-3′ (SEQ ID NO:3) and 5′-AAACCAGUUUGAUAAGUCCtt-3′ (SEQ ID NO:4), Ambion (chain 1 GGACUUAUCAAACUGGUUUTT; chain 2 AAACCAGUUUGAUAAGUCCTT; chemistry not given here)”, the “HCV NS5A protein expression (HCV amplification)” value in the data set on HCV (JFH1, genotype 2a) was “not detected”. In the data set on RPS25 mRNA, the “RPS25 knockdown effectiveness (RPS25 mRNA level)” value is on record as “over 95%”.
